ChEMBL document CHEMBL1149376, “Sulfamoyl-4-oxoquinoline-3-carboxamides: novel potentiators of defective DeltaF508-cystic fibrosis transmembrane conductance regulator chloride channel gating” (Bioorg Med Chem Lett, 2006)

Molecular target: Cystic fibrosis transmembrane conductance regulator (Homo sapiens) (UniProt P13569)
Test: Potentiation of deltaF508 mutated CFTR dependent iodide influx at 0.1 uM
Format: functional

Cystic fibrosis transmembrane conductance regulator (Homo sapiens), sequence (P13569 whole entry, looked up): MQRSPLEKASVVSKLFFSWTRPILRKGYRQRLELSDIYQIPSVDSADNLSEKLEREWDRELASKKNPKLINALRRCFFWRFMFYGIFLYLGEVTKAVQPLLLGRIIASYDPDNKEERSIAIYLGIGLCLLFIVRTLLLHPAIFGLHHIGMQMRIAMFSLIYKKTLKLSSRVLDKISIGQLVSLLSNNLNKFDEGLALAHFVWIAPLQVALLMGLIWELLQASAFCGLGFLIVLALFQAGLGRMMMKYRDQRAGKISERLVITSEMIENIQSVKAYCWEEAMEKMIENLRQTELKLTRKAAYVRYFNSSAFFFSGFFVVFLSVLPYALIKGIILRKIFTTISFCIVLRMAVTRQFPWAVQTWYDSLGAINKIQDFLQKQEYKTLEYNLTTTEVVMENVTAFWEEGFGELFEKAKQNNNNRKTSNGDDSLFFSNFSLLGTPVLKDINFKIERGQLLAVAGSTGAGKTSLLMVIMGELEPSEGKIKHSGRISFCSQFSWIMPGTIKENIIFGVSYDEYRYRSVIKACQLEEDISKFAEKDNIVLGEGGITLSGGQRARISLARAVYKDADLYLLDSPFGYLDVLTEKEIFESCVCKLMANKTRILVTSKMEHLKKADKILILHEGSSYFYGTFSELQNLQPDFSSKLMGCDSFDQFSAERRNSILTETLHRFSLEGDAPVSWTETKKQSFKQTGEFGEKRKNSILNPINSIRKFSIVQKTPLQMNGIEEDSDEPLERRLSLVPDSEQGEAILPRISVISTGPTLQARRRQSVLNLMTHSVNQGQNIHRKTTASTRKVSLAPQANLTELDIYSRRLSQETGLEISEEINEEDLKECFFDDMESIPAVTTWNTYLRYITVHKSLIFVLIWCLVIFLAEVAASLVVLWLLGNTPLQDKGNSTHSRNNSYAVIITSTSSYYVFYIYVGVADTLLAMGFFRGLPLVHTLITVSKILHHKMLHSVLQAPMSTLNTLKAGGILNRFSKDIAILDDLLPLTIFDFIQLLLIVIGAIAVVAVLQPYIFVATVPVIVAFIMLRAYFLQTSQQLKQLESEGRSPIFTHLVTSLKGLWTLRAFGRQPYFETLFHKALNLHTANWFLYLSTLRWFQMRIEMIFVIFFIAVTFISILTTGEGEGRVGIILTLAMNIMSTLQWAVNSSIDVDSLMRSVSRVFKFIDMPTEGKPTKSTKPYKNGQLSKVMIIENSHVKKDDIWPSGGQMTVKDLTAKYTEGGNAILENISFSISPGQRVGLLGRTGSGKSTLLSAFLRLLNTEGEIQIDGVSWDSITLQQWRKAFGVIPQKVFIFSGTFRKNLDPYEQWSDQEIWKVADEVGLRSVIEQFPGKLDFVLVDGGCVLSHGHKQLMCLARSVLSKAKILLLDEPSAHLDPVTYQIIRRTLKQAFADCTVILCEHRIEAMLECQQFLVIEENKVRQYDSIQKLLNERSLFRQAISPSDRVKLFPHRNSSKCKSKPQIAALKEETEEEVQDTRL

CCN(c1ccccc1)S(=O)(=O)c1ccc2ncc(C(=O)NCc3ccccc3OC)c(O)c2c1
Activity: 50%
